Earlier results in patent US20110281920A1, “INJECTABLE PARASITICIDAL FORMULATIONS OF LEVAMISOLE AND MACROCYCLIC LACTONES” (priority 2010, published 2011).

Tests used:
[1] = lactating mammals; ratio of 1 = even distribution between milk and plasma

Molecule	Solubility in water	milk to plasma partition ratio [1]
c1ccc([C@H]2CN3CCSC3=N2)cc1 [Levamisole]	water soluble	–
eprinomectin	nearly water insoluble	~0.2
